The record followed here is ChEMBL document CHEMBL4196016, “Regioselective synthesis of 7-O-esters of the flavonolignan silibinin and SARs lead to compounds with overadditive neuroprotective effects” (Eur J Med Chem, 2018).

The inhibition is the percentage by which the read-out fell short of the control. Higher therefore signals a response far below the control. Usually EC50 stands for the concentration that produces a half-maximal response.

The source made the active and inactive calls. No cut-off for these calls is given here.

The test system of one data set is PC-12. Nature of the data set: Induction of rat PC12 cells differentiation assessed as neurite outgrowth at 10 uM after 24 hrs relative to control. Format: functional.
A short description of data set [1]: Antioxidant activity assessed as reduction of Fe3+-TPTZ to Fe2+-TPTZ using 1:1 test compound to ferulic acid ratio measured every 15 secs for 4 mins by FRAP assay. Format: functional.
Data set [2] concerns the target T1, Microtubule-associated protein tau (Homo sapiens, UniProt P10636). Nature of the data set: Inhibition of tau (unknown origin) aggregation expressed in Escherichia coli (DE3) at 10 uM incubated for overnight by Th-S fluorescence staining based UV-Vis spectrophotometer (reference value: 0.0 +/- 1.4%).
In data set [3] the test system is HT-22. The data set can be described thus: Neuroprotective activity against glutamate-induced mouse HT22 cells assessed as increase in cell survival at 1 to 25 uM cotreated with glutamate measured after 24 hrs by MTT assay. Format: functional, cell-based. (In general: Tetrazolium dyes change colour on reduction, which living cells bring about.)
Data set [4] has as its target T2, Amyloid-beta precursor protein (Homo sapiens, UniProt P05067). The data set can be described thus: Inhibition of amyloid beta 42 (unknown origin) expressed in Escherichia coli BL21 (DE3) aggregation at 100 uM incubated for overnight by Th-S fluorescence staining based UV-Vis spectrophotometer (reference value: 0 +/- 4.4%).
The subject of data set [5] is HT-22. The data set can be described thus: Neurotoxicity against mouse HT22 cells assessed as decrease in cell viability at 25 uM measured after 24 hrs by MTT assay. Format: toxicity, cell-based. The conditions noted are these: ht-22, 24 h.
For data set [6], the system named is HT-22. The data set can be described thus: Neurotoxicity against mouse HT22 cells assessed as decrease in cell viability at 25 uM using 1:1 test compound to ferulic acid ratio measured after 24 hrs by MTT assay. Format: toxicity, cell-based. To be noted: ht-22, 24 h.
Data set [7] can be described thus: Antioxidant activity assessed as reduction of Fe3+-TPTZ to Fe2+-TPTZ using equimolar mixture of test compound and cinnamic acid measured every 15 secs for 4 mins by FRAP assay. Format: functional.
The target in data set [8] is T1, Microtubule-associated protein tau. Nature of the data set: Inhibition of tau (unknown origin) aggregation expressed in Escherichia coli (DE3) at 100 uM incubated for overnight by Th-S fluorescence staining based UV-Vis spectrophotometer (reference value: 0.0 +/- 2.4%).
For data set [9], the target named is T2, Amyloid-beta precursor protein. The data set can be described thus: Inhibition of amyloid beta 42 (unknown origin) expressed in Escherichia coli BL21 (DE3) aggregation at 10 uM incubated for overnight by Th-S fluorescence staining based UV-Vis spectrophotometer (reference value: 0 +/- 1%).
The nature of data set [10]: Antioxidant activity assessed as ferric ion reduction by measuring FeSO4 equivalents reducing Fe3+-TPTZ to Fe2+-TPTZ measured every 15 secs for 4 mins by FRAP assay. Format: functional.
In the next data set the test system is BV-2. The data set can be described thus: Antiinflammatory activity in mouse BV2 cells assessed as inhibition of LPS-induced microglial activation after 24 hrs by Griess reagent based assay. Format: functional, cell-based. To be noted: BV-2, 24 h. On the technique in general: Nitrite, measured by Griess reagent, commonly stands in for NO production.
In data set [11] the test system is HT-22. Nature of the data set: Neuroprotective activity against glutamate-induced mouse HT22 cells assessed as increase in cell survival at 1 to 25 uM using 1:1 test compound to ferulic acid ratio cotreated with glutamate measured after 24 hrs by MTT assay. Format: functional, cell-based.
Data set [12] has as its system HT-22. The data set can be described thus: Neurotoxicity against mouse HT22 cells assessed as decrease in cell viability at 25 uM using 1:1 test compound to cinnamic acid ratio measured after 24 hrs by MTT assay. Format: toxicity, cell-based. To be noted: ht-22, 24 h.
Data set [13] concerns HT-22. The data set can be described thus: Neuroprotective activity against IAA-induced ischemia in mouse HT22 cells assessed as increase in cell viability cotreated with IAA for 2 hrs followed by IAA wash out measured after 24 hrs by MTT assay. Format: functional, cell-based.

T2 sequence (P05067 whole entry): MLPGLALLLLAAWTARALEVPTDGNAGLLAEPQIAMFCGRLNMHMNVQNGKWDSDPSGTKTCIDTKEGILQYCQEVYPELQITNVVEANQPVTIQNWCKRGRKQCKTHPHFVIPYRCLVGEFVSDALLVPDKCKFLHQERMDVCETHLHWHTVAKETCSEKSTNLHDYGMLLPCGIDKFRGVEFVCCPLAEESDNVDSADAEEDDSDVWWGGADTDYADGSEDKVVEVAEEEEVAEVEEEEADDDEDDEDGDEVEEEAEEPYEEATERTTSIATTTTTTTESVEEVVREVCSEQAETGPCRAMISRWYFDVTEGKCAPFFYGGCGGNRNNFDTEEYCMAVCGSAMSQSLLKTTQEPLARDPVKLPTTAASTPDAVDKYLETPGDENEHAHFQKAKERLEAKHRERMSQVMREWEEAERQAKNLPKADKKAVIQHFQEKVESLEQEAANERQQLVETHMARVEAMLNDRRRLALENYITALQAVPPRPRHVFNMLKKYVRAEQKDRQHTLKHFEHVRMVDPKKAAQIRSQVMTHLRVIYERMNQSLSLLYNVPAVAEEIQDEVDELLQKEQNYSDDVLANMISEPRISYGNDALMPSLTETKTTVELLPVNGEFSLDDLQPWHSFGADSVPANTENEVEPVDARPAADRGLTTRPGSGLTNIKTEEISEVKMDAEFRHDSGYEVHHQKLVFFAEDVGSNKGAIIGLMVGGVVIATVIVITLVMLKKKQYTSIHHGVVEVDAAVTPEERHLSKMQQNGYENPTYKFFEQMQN
T1 sequence (P10636 whole entry): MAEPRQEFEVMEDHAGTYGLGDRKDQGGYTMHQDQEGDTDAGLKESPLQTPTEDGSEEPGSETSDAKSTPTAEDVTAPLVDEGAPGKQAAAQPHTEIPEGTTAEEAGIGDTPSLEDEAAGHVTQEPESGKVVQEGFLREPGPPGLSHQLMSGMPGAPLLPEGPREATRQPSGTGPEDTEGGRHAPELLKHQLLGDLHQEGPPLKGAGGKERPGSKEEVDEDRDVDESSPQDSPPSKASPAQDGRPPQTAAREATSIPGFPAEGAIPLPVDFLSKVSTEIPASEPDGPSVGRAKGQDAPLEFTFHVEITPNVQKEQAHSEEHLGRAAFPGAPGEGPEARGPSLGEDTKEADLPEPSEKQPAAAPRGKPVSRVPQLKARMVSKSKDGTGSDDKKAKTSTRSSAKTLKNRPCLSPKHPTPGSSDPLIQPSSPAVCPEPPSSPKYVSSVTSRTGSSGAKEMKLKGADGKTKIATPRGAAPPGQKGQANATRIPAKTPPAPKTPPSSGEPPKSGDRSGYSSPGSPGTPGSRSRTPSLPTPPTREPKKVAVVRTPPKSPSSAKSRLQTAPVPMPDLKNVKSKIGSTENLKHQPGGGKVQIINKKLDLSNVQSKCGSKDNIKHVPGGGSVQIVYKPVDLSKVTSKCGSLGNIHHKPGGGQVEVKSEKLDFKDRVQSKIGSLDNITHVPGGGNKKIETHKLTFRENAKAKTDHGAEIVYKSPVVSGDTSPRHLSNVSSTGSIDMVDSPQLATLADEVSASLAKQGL

As for `COc1cc(C2Oc3cc([C@H]4Oc5cc(O)cc(O)c5C(=O)[C@@H]4O)ccc3OC2CO)ccc1O` (stereo not given in full) [SILIBININ], the Activity with PC-12 is 38%; with HT-22 [5], “Non-Toxic”; with HT-22 [6], “Toxic”; in [10], 0.6 equiv; in the data set with HT-22 [12], “Toxic”. The outcome in [1] and in data set [7] was Active. Besides, the inhibition is 2% in data set [2], 16% in data set [4], 10.1% in [8] and 4.8% in [9]. Also, the result with HT-22 [3] and in the data set on HT-22 [11] was inactive. Moreover, the EC50 in the data set on BV-2 and with HT-22 [13] was above 10 µM throughout.
